Molecular target: ALK5 (Homo sapiens (Human), UniProt P36897)
Assay: Evaluation of IC50 of inhibitory activity toward ALK5 enzyme (ADP-Glo kinase assay)
Type: biochemical
Conditions: 25 nM ALK5, 0.1 mg/mL peptide TGFbR1, 7 μM ATP, 30° C. 1 hour, ADP-Glo luminescence
Protocol: 5. […] The value of the luminescence reading was converted to % inhibition by formula (% inhibition=(max−sample RLU)/(max−min)×100, wherein, “min” refers to control fluorescence reading of reaction of no enzyme; “max” refers to the fluorescence reading of the sample with DMSO added as a control. The data was imported into MS Excel and curve fitting was performed using GraphPad Prism. IC50 values was calculated.

Chain of ALK5 (P36897 34-503, species assumed): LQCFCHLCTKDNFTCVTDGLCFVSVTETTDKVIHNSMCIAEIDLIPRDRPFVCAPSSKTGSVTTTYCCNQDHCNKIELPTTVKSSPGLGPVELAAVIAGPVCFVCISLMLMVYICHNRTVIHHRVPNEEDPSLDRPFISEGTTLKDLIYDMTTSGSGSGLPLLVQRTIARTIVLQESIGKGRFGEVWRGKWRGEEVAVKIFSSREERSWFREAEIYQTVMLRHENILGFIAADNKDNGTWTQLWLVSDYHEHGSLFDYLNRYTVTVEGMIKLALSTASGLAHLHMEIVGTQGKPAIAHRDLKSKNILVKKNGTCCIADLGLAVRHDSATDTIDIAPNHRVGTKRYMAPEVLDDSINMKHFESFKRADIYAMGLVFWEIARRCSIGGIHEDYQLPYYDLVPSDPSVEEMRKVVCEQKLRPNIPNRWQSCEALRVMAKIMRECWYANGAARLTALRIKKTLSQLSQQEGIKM

SMILES	IC50 [nM]
Cc1ccn(-c2ccccc2-c2ccc3ncc(C(N)=O)n3c2)n1 [Compound 32]	339
Cc1cccc(-c2ccccc2-c2ccc3ncc(C(=O)N(C)C)n3c2)n1 [Compound 5]	243
Cc1cccc(-c2cccc(F)c2-c2ccc3ncc(C(N)=O)n3c2)n1 [Compound 8]	45
Cc1cccc(-c2ccccc2-c2ccc3ncc(C(=O)NC4CC4)n3c2)n1 [Compound 58]	46
Cc1cccc(-c2ccccc2-c2ccc3nccn3c2)n1 [Compound 11]	145
Cc1cccc(-c2cc(F)ccc2-c2ccc3ncc(C(N)=O)n3c2)n1 [Compound 10]	35
Cc1cccc(-c2ccc(OCc3ccccc3F)cc2-c2ccc3ncc(C(N)=O)n3c2)n1 [Compound 55]	13
COc1cccc(-c2ccccc2-c2ccc3ncc(C(N)=O)n3c2)n1 [Compound 24]	45
Cc1nccc(-c2ccccc2-c2ccc3ncc(C(N)=O)n3c2)n1 [Compound 48]	237
Cc1cccc(-c2ccccc2-c2ccc3ncc(C(=O)NC4CCOCC4)n3c2)n1 [Compound 61]	114
Cc1nc(-c2ccccc2-c2ccc3ncc(C(N)=O)n3c2)cs1 [Compound 27]	193
Cc1cccc(-c2ccccc2-c2ccc3ncc(S(N)(=O)=O)n3c2)n1 [Compound 34]	581
Cc1cccc(-c2ccccc2-c2ccc3[nH]ncc3c2)n1 [Compound 16]	1300
Cc1cccc(-c2ccccc2-c2ccc3ncc(C(N)=O)n3n2)n1 [Compound 54]	98
Cc1cccc(-c2ccccc2-c2ccc3nncn3c2)n1 [Compound 17]	> 10000
Cc1cccc(-c2ccccc2-c2ccc3ncc(C(=O)NCCN4CCOCC4)n3c2)n1 [Compound 60]	64
COc1ccc(-c2cccc(C)n2)c(-c2ccc3ncc(C(N)=O)n3c2)c1 [Compound 29]	38
Cc1cccc(-c2ccccc2-c2ccc3occ(C(N)=O)c3c2)n1 [Compound 33]	221
NC(=O)c1cnc2ccc(-c3ccccc3-c3cccc(C(F)(F)F)n3)cn12 [Compound 45]	15

SMILES	IC50 [nM]
Cc1cccc(-c2ccccc2-c2ccc3ncc(C(=N)N)n3c2)n1 [Compound 35]	579
Cn1ccc(-c2ccccc2-c2ccc3ncc(C(N)=O)n3c2)n1 [Compound 47]	126
Cc1coc(-c2ccccc2-c2ccc3ncc(C(N)=O)n3c2)n1 [Compound 63]	74
Cc1cccc(-c2ccccc2-c2ccc3nc(C)c(C(N)=O)n3c2)n1 [Compound 30]	2930
Cc1ccc(F)c(-c2ccccc2-c2ccc3ncc(C(N)=O)n3c2)n1 [Compound 40]	12
Cc1cccc(-c2c(F)cccc2-c2ccc3ncc(C(N)=O)n3c2)n1 [Compound 6]	82
Cc1cccc(-c2ccccc2-c2ccc3ncnc(N)c3c2)n1 [Compound 13]	337
Cc1cccc(-c2ccccc2-c2ccc3ncc(CN)n3c2)n1 [Compound 4]	5700
Cc1cncc(-c2ccccc2-c2ccc3ncc(C(N)=O)n3c2)n1 [Compound 44]	322
Cc1ccnc(-c2ccccc2-c2ccc3ncc(C(N)=O)n3c2)n1 [Compound 42]	144
Cc1cccc(-c2ccccc2-c2ccc3ncc(C(=O)NO)n3c2)n1 [Compound 12]	45
Cc1csc(-c2ccccc2-c2ccc3ncc(C(N)=O)n3c2)n1 [Compound 26]	38
Cc1cccc(-c2cc3nccn3cc2-c2ccc3ncc(C(N)=O)n3c2)n1 [Compound 57]	56
Cc1cccc(-c2ccccc2-c2ccc3ncc(C(N)=O)nc3c2)n1 [Compound 52]	415
Cc1cccc(-c2ccccc2-c2ccc3ncc(C)n3c2)n1 [Compound 31]	126
Cc1cccc(-c2ccc(C(N)=O)cc2-c2ccc3ncc(C(N)=O)n3c2)n1 [Compound 37]	63
Cc1cccc(-c2ccccc2-c2ccc3ncc(C(N)=O)n3c2)n1 [Compound 2]	16.5
Cc1cccc(-c2ccccc2-c2ccc3ncc(-c4nnn[nH]4)n3c2)n1 [Compound 21]	72
Cc1nc(-c2ccccc2-c2ccc3ncc(C(N)=O)n3c2)ccc1Cl [Compound 39]	196

SMILES	IC50 [nM]
Cc1cccc(-c2ccccc2-c2ccc3ncc(C#N)n3c2)n1 [Compound 20]	535
Cc1cccc(-c2ccccc2-c2ccn3ncc(C(N)=O)c3c2)n1 [Compound 14]	53
Cc1cccc(-c2ccccc2-c2ccc3ncnn3c2)n1 [Compound 15]	360
Cc1cccc(-c2ccccc2-c2ccc3nc[nH]c(=O)c3c2)n1 [Compound 49]	102
Cc1cccc(-c2ccccc2-c2ccnc3ccc(C(N)=O)cc23)n1 [Compound C-1, reference compound]	> 10000
Cc1cccc(-c2ccccc2-c2ccc3ncc(N)n3c2)n1 [Compound 22]	560
Cc1cccc(-c2ccccc2-c2ccc3ncc(C(=O)O)n3c2)n1 [Compound 1]	192
Cc1cccc(-c2ccccc2-c2ccc3ncc(NC=O)n3c2)n1 [Compound 28]	674
NC(=O)c1cnc2ccc(-c3ccccc3-c3ccccn3)cn12 [Compound 7]	85
Cc1cccc(-c2ccc(F)cc2-c2ccc3ncc(C(N)=O)n3c2)n1 [Compound 9]	16
Cc1cccc(-c2ccccc2-c2ccc3nnc(C(N)=O)n3c2)n1 [Compound 18]	4740
CNC(=O)c1cnc2ccc(-c3ccccc3-c3cccc(C)n3)cn12 [Compound 3]	27
Cc1cccc(-c2ccccc2-c2ccc3c(cnn3C(N)=O)c2)n1 [Compound 19]	> 10000
Cc1nc(-c2ccccc2-c2ccc3ncc(C(N)=O)n3c2)ccc1F [Compound 38]	18
Cc1cccc(-c2ccc(Oc3ccccc3F)cc2-c2ccc3ncc(C(N)=O)n3c2)n1 [Compound 59]	39
Cc1cccc(-c2ccc(C#N)cc2-c2ccc3ncc(C(N)=O)n3c2)n1 [Compound 25]	73
Cc1cccc(-c2cscc2-c2ccc3ncc(C(N)=O)n3c2)n1 [Compound 53]	6.9
Cc1cccc(-c2ccncc2-c2ccc3ncc(C(N)=O)n3c2)n1 [Compound 23]	110
